In patent US20190381198A1, “RA[…]-GAL[…] FOR PET IMAGING OF SENESCENCE” (Eberhard Karls Universitaet Tuebingen Medizinische Fakultaet, priority 2017, published 2019):

Key:
[1] = test system: beta-galactosidase; details: 30° C., 30 minutes, citrate buffer pH 5.5
Experimental: To assess whether tracer 9 is a substrate of beta-galactosidase, it is incubated at 30° C. for 30 minutes in citrate buffer of pH 5.5 containing commercially available betagalactosidase (Sigma). The reaction is stopped by adding 2 volume equivalents of acetonitrile, followed by 5 minutes of centrifugation. The supernatant is examined directly using radio-HPLC. […] The expected radioactive metabolite is compared with the authentic non-radioactive standard (FIG. 2). […] Compound 11 is galactose.

[2] = test system: HRas driven liver progenitor cell line; test: in vitro tracer uptake in senescent vs control HRas driven liver progenitor cells (gamma counter); format: cell-based; details: 3.7-7.4 MBq of tracer, 50 minutes
Experimental: (§1) As the second model, transgenic liver progenitor cell line (Hras) was used for subcutaneous allografts in nude mice. The cell line expresses Hras^G12v and p53shRNA under doxycycline (doxy) conditions. After the removal of doxycycline, the p53 mRNA can be restored and translated to p53 protein. The high amount of p53 triggers senescence. The animals bearing Hras tumors received doxy-water (0.2 mg/ml) for tumor development and 14 days, after removal of doxy-water, the PET/MRT scans are performed with compound 9.
(§2) HCT116 (FIG. 4a) and Hras cells (FIG. 4b) are treated with […] of tracer and incubated for 50 minutes. The cells are measured in a gamma-counter, with the activity normalized to the number of cells used.
(§3) The PET-tracer is tested in two different models in vitro. In HCT116 cells senescence is induced by overnight incubation with doxorubicin, followed by 4 days of culture under normal conditions. Senescence in a HRas driven liver progenitor cell line with a doxycycline regulatable p53-specific shRNA. After induction of senescence, both cell lines are incubated with 3.7-7.4 MBq of tracer for 50 minutes. The cells are then washed, counted and measured in a gamma counter. The activity taken up by the cells is analyzed and normalized to a million cells.

[3] = stability of tracer 9 in mouse serum (radio-HPLC); format: in vitro ADME; details: 37° C., 1 hour
Experimental: The tracer 9 is incubated at 37° C. in mouse serum to assess its stability. After 1 hour, 2 volume equivalents of acetonitrile are added and the mixture is centrifuged for 5 minutes. The supernatant is examined directly using radio-HPLC. Serum stability of tracer 9 after 1 h (FIG. 3a) vs tracer 9 (FIG. 3b) is derivable from FIG. 3.

[4] = test system: HCT116 cells; test: in vitro tracer uptake in senescent vs control HCT116 cells (gamma counter); format: cell-based; details: 3.7-7.4 MBq of tracer, 50 minutes
Experimental: as §2, §3

[5] = test system: Hras tumors; test: in vivo PET tracer uptake in s.c. HRas driven tumors, senescence by doxycycline removal; parameters: species or system nude mice; details: for TMR (tumor-to-muscle ratio) / tracer uptake: PET; for tracer uptake: i.v.
Experimental: as §1
(§4) In vivo tests are performed in nude mice bearing s.c. HCT116 or HRas driven liver progenitor cells. Mice bearing HCT116 tumors are treated with doxorubicin (10 mg/Kg bodyweight) and imaged 4 days after the onset of senescence. Mice bearing Hras driven tumor are supplied with doxycycline in their drinking water, which has been later removed to induce senescence. After induction of senescence, the tracer is administered i.v. and PET scans are performed. The %ID/cc and tumor-to-muscle ratios are determined through quantitative analysis of the PET data, permitting evaluation of the tracers. In vitro senescent HCT116 cells show an uptake of 11 kBq/1 mio cells, while the uptake in non-senescent control cells is only 4 kBq/1 mio cells.
Both %ID/cc and TMR are higher in senescent vs control tumors. The excised tumors are subjected to ex vivo analyses. […] Senescent tumor slices also show higher X-Gal staining than control sections. The nonsenescent tumor expresses GFP, which can be visualized with optical imaging.

[6] = test system: HCT116 tumors; test: in vivo PET tracer uptake in s.c. HCT116 xenograft tumors, doxorubicin-induced senescence; parameters: species or system nude mice; details: for TMR (tumor-to-muscle ratio) / in vivo tracer uptake: PET; for in vivo tracer uptake: i.v.
Experimental: A xenograft model of colorectal cancer cell line (HCT116) with therapy induced senescence, doxorubicin is used as a chemotherapeutic. Senescence is induced in HCT116 xenograft tumors by intravenous (i.v.) administration of doxorubicin (10 mg/kg). Through tail vain of the mice, 5 days later dynamic PET/MRT scans (1 h) with compound 9 are performed.
as §4
The in vivo tracer uptake in senescent and non-senescent HCT116 tumors (FIG. 5) is 1.7+/−0.7 (n=7) vs 1.1+/−0.4 (n=5) %ID/cc respectively; the respective TMR values are 1.7 and 1.1. […] Both %ID/cc and TMR are higher in senescent vs control tumors. The excised tumors are subjected to ex vivo analyses.

OC[C@H]1O[C@@H](Oc2cccnc2[18F])[C@H](O)[C@@H](O)[C@H]1O [tracer 9]
conversion by beta-galactosidase (radioactive metabolite by radio-HPLC) [1]: produces the radioactive metabolite with the same retention time as the non-radioactive 2-fluoropyridinol | uptake in senescent cells compared to controls ([2]; Hras cells, activity normalized to number of cells): significantly higher uptake compared to the controls | uptake ([2]; non-senescent HRas driven liver progenitor cells): 63 kBq/1 mio cells | uptake ([2]; senescent HRas driven liver progenitor cells): 192 kBq/1 mio cells | serum stability [3]: integrity remains largely intact | uptake in senescent cells compared to controls ([4]; HCT116 cells, activity normalized to number of cells): significantly higher uptake compared to the controls | uptake ([4]; non-senescent control HCT116 cells): 4 kBq/1 mio cells | uptake ([4]; senescent HCT116 cells): 11 kBq/1 mio cells | autoradiography of excised tumors, ex vivo ([5]; HRas tumor sections, senescent vs control): higher tracer uptake in the senescent tumor section vs control | TMR (tumor-to-muscle ratio) ([5]; control HRas tumors): 1.2 | tracer uptake ([5]; control HRas tumors, n=11): 0.9+/−0.3 %ID/cc | TMR (tumor-to-muscle ratio) ([5]; senescent HRas tumors): 2.1 | tracer uptake ([5]; senescent HRas tumors, n=16): 1.5+/−0.3 %ID/cc | autoradiography of excised tumors, ex vivo ([6]; HCT116 tumor sections, senescent vs control): higher tracer uptake in the senescent tumor section vs control | TMR (tumor-to-muscle ratio) ([6]; non-senescent HCT116 tumors): 1.1 | in vivo tracer uptake ([6]; non-senescent HCT116 tumors, n=5): 1.1+/−0.4 %ID/cc | TMR (tumor-to-muscle ratio) ([6]; senescent HCT116 tumors): 1.7 | in vivo tracer uptake ([6]; senescent HCT116 tumors, n=7): 1.7+/−0.7 %ID/cc
